Two molecules from patent US20140037630A1, “METHODS FOR TREATING MICA-RELATED DISORDERS” (DANA-FARBER CANCER INSTITUTE, INC., priority 2006, published 2014) can be followed below.

Assay [1] deals with RPMI-8226 MM cells. Description: Immunoblotting for DNA damage response (phospho-ATM, phospho-chk-2) in RPMI-8226 MM cells. The conditions noted are these: 20 μM Bortezomib or 250 μg/ml dexamethasone. The format is cell-based. As for the experimental part: (§1) Antibodies used for immunoblotting were: anti-phospho-ATM (ser 1981), anti-ATM, anti-phospho-ATR (ser 428), anti-ATR, anti-phospho-chk-1 (ser 280) and anti-phospho-chk-2 (thr 68) (Cell Signaling, Beverly, Mass.). Immunoblotting was performed according to standard methods. In some experiments, U226 cells were transiently transfected with expression plasmids encoding human chk-1 shRNA (5′-[…]-3′) (SEQ ID NO: 1), chk-2 shRNA, or ATM shRNA (Upstate cell signaling, Lake Placid, N.Y.) according to the manufacturer's instructions. The efficiency of gene knockdown was 50%-90% as assessed by immunoblotting.
(§2) U226, RPMI, and MM-1R cells were obtained from the American Type Culture Collection (Manassas, Va.), and MM-1S cells were a gift of Dr. Steven Rosen (Northwestern University). […] U226-MICA cells were generated with retroviral mediated gene transfer according to standard methods.
(§3) The effect of the proteasome inhibitor Bortezomib, a MM therapeutic, on MICA expression and the DNA damage response pathway was analyzed. U226 and RPMI-8226 MM cells were treated with 20 μM Bortezomib, 250 μg/ml dexamethasone or 10 μg/ml aphidicolin (a DNA polymerase inhibitor that served as a control for inducing DNA damage) for the indicated times. Cell lysates were prepared and evaluated for phospho-ATM (ser 1981), ATM, phospho-chk-2 (thr 68) or chk-2 by immunoblotting. […]
(In general: A western blot detects proteins with antibodies after separation by electrophoresis.)

In assay [2] the test system is MM-1R MM cells. Description: Surface MICA expression by flow cytometry in MM-1R MM cells. The format is cell-based. The conditions noted are these: 20 μM Bortezomib overnight. Here is the method:
(§4) PBMCs and bone marrow aspirates were processed by Ficoll-Hypaque (Pharmacia) density-gradient centrifugation. PBMCs from healthy donors or patients were incubated for 48 hours in patient or control sera (10%) in complete media and stained with PE-conjugated anti-NKG2D mAb (Pharmingen), FITC-conjugated anti-CD3 mAb (BD-Biosciences Pharmingen), and either PC5-conjugated anti-CD8 mAb or PC5-conjugated anti-CD56 mAb (Beckman-Coulter). In Examples 9-11, antibodies used, in addition to the above, were: FITC-conjugated anti-CD138, PE-conjugated anti-MICA mAb (R&D Systems), and anti-ERp5 (Axxora Platform) followed by FITC-conjugated anti-rabbit (Southern Biotech). Cells were analyzed with a FW501 flow cytometer (Beckman-Coulter) and FlowJo software (Tree Star). Cells were gated for CD3^+CD8^+ T cells and CD3^−CD56^+ NK cells. […] Cells were analyzed with a FACScan cytometer (Becton Dickinson). […]
(§5) For the experiment shown in FIG. 16B, the indicated MM cells were treated with 20 μM Bortezomib overnight and surface MICA expression was determined with flow cytometry. […] IFN-γ production was measured by ELISPOT against dendritic cells loaded with U226 MM cells. […]
On the technique in general: A flow cytometer gives signals particle by particle.

In assay [3] the test system is U226 MM cells. Description: Immunoblotting for DNA damage response (phospho-ATM, phospho-chk-2) in U226 MM cells. In kind it is cell-based. Here is the method:
as §1, §2, §3

In assay [4] the test system is U226 MM cells. Description: Dendritic cell cross-presentation of MGUS sera-coated treated U226 MM cells, IFN-γ ELISPOT of CD8+ T cells. In kind it is cell-based. The settings on record: drug treated U226 MM cells coated with MGUS sera; CD8+ T cells stimulated seven days. As for the experimental part:
Donor peripheral blood mononuclear cells (PBMCs) were incubated in 10% patient sera as described above, and NK cells, isolated by magnetic cell sorting (Miltenyl Biotech), were tested in four-hour lysis assays against ^51Cr-labeled K562 target cells. The spontaneous release in all assays was less than 20% of the maximum. Dendritic cells (generated from adherent PBMCs with GM-CSF and IL-4) were co-cultured with opsonized tumor cells (1:1 ratio) for 20 hours, matured with LPS (Sigma-Aldrich) for 24 hours, and then used to stimulate autologous CD8+ T cells, isolated by magnetic cell sorting, for seven days. Antigen specific IFN-γ production was then determined by ELISPOT. For enzyme-linked immunospot (ELISPOT) analysis, ImmunoSpotplates (Cellular Technology) were coated overnight at 37° C. with 10 μg/ml anti-IFN-γ mAb (Mabtech). […] Spots were developed by using BCIP/NBT as a color development substrate and counted with an ImmunoSpot microplate reader (Cellular Technology, Cleveland).
as §5

For assay [5], the system named is MM-1S cells. Description: Immunoblotting for phospho-ATM and total ATM in MM-1S cells. The format is cell-based. The settings on record: 10 μM Bortezomib. Here is the method:
as §1, §2, §3

The subject of assay [6] is U226 MM cells. Description: Surface MICA expression by flow cytometry in U226 MM cells. The format is cell-based. The conditions noted are these: 20 μM Bortezomib overnight. As for the experimental part: as §4, §5
Assay [7] concerns MICA. Description: Anti-MICA antibody ELISA with recombinant MICA protein on longitudinal patient sera. The format is in vivo, human. The conditions noted are these: patient MEL15; sera diluted 1:500. Here is the method:
(§6) Anti-MICA antibodies and sMICA levels were measured with ELISAs using recombinant MICA protein (ProSpec-Tany TechnoGene Inc.) and anti-human MICA monoclonal antibodies (R&D Systems). The lower limits of the assay were 90 pg/ml. The Wilcoxon rank sum test with no adjustments for multiple comparisons was used to analyze the differences among the normal donors, MGUS, and MM patients. For complement assays, 293T and 293-T-MICA cells, generated by retroviral mediated gene transfer were incubated with patient sera and human complement (Sigma-Aldrich) and lysis quantified using MTT (Roche Diagnostic GmbH).
The humoral response to MICA was analyzed by an ELISA with recombinant MICA protein as described in Example 1. Longitudinal sera samples from MEL15 were diluted 1:500. Downward arrows denote tumor cell vaccinations and upward arrows depict infusions of MDX-010.
Patient M37 entered study with visceral melanoma metastases, which were completely resected for vaccine manufacture. […] Subsequent isolated recurrences were processed into additional vaccines, whereas the patient succumbed to progressive disease 4.5 years after study entry.
A general note: In an ELISA, binding on a coated surface is turned into a signal by an enzyme label.

Assay [8] deals with sMICA. Description: sMICA ELISA on longitudinal MEL15 sera. In kind it is in vivo, human. The conditions noted are these: patient MEL15 sera. As for the experimental part:
as §6
Soluble MICA (sMICA) levels were also analyzed. […] The reduction in sMICA was confirmed with immunoblotting analysis of MEL15 sera using an anti-MICA monoclonal antibody.

Consider `CC(C)C[C@H](NC(=O)[C@H](Cc1ccccc1)NC(=O)c1cnccn1)B(O)O` [Bortezomib], for which the “phosphorylation of ATM (ser 1981) and chk-2 (thr 68)” value was “but not RPMI MM cells” in assay [1] and “triggered the rapid phosphorylation” in assay [3] (20 μM Bortezomib or 250 μg/ml dexamethasone). For the same molecule, the “surface expression of MICA” value in assay [2] and in assay [6] was “increased the surface expression of MICA” each time. Also, in assay [3] (10 μM Bortezomib), the “ATM phosphorylation (ser 1981)” value was “induced ATM phosphorylation”. In addition, in assay [4], the “dendritic cell cross-presentation of treated U226 cells by MGUS sera (IFN-γ ELISPOT)” value was “as efficiently as U226-MICA cells”. For the same molecule, in assay [5], the “ATM (total ATM, immunoblot)” value is “stimulated the degradation of ATM”.
As for “MDX-010: fully human anti-CTLA-4 blocking monoclonal antibody”, the anti-MICA antibody titers entry in assay [7] was “elevated levels of anti-MICA antibodies”. Further, the sMICA levels result in assay [8] is listed as “sharp decrease”.
